Experiment [1] concerns Ramos cells with BTK WT. The experiment in a line: Phosphor-BTK(Y223) assay, suspended cells. The format is cell-based. The note with it: phosphorylated BTK Y223, Ramos cells with BTK WT. The method, boiled down: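 Ramos BTK WT cells (2.5 k/well) were treated with compound dilutions for 2 h at 37 °C, then 5 mM Na3VO4 for 3 h. Lysates were read by HTRF p-BTK(Y223) cryptate/d2 antibodies overnight at RT (665/620 ratio). IC50 came from a four-parameter fit of % inhibition versus blank and positive-control wells.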

Experiment [2] addresses T1, BTK kinase (Homo sapiens, UniProt Q06187).
T1 construct: purchased Invitrogen PV3587
The experiment is described as follows: Kinase activity inhibition assay (HTRF TK Kit). It is filed as biochemical. The method, boiled down:
(§1)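 HTRF TK-substrate phosphorylation assay, set up on ice, then the kinase reaction ran at room temperature in 1% DMSO. Detection used streptavidin-XL665 plus TK antibody-cryptate for 1 h at RT, and the 665/620 nm ratio was read. IC50s came from a four-parameter nonlinear fit of % inhibition against log concentration.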
(In general: Time-resolved FRET reads energy transfer from a long-lived donor to a nearby acceptor.)

For experiment [3], the target named is T2, BTK C481S (Homo sapiens, UniProt Q06187, C481S).
T2 construct: purchased Carna 08-547
T2 sequence (Q06187 whole entry C481S): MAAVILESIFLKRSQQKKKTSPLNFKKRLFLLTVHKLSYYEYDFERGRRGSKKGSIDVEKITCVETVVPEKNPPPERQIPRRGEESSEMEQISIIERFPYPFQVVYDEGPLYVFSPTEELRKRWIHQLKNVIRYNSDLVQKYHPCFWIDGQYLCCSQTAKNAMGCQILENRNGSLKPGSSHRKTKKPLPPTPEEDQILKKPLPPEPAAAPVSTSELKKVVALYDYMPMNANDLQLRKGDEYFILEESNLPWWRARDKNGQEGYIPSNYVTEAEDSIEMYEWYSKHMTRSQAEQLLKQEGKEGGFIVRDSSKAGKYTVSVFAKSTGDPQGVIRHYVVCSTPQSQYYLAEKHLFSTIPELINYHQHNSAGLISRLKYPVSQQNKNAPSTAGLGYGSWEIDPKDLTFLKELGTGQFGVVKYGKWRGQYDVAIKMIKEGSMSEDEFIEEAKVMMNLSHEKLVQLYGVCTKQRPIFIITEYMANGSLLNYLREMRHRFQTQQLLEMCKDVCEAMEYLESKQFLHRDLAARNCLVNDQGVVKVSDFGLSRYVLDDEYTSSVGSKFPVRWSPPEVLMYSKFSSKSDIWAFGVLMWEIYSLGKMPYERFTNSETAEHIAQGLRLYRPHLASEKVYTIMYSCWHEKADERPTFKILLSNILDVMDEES
The experiment in a line: Kinase activity inhibition assay (HTRF TK Kit). The format is biochemical. The method, boiled down:
as §1

Experiment [4] has as its target T3, BTK T474I (Homo sapiens, UniProt Q06187, T474I).
T3 construct: purchased SignalChem B10-12HH
The experiment in a line: Kinase activity inhibition assay (HTRF TK Kit). The format is biochemical. The procedure, abridged:
as §1

One may read the pIC50 as the IC50 on a negative log10 scale, so that one unit is a factor of ten.

pIC50: −log10 of the molar value. Bounds are passed on as bounds.

T3 sequence (Q06187 whole entry T474I): as the sequence (Q06187 whole entry C481S) above, with T474I, S481C counted along it
T1 sequence (Q06187 whole entry): as the sequence (Q06187 whole entry C481S) above, with S481C counted along it

Turning to `COc1ccc(F)cc1C(=O)NCc1ccc(-c2ncc(-c3ccc(NC(=O)C4CC4)cn3)c3[nH]nc(N)c23)cc1` [Example 79, N-(4-(3-amino-7-(5-(cyclopropaneformamido)pyridin-2-yl)-1H-pyrazolo[4,3-c]pyridin-4-yl)benzyl)-5-fluoro-2-methoxybenzamide], the pIC50 in experiment [1] (Homo sapiens) is 8.00 to 8.30; in experiment [2] it was 7.30 to 8.30; in experiment [3] it was 7.30 to 8.30; in experiment [4], under 6.30.

For `COc1ccc(F)cc1C(=O)NCc1ccc(-c2ncc(-c3cc(NC(=O)C4CC4)ccn3)c3[nH]nc(N)c23)cc1` [Example 80, N-(4-(3-amino-7-(4-(cyclopropaneformamido)pyridin-2-yl)-1H-pyrazolo[4,3-c]pyridin-4-yl)benzyl)-5-fluoro-2-methoxybenzamide], the negative-log IC50 (pIC50) is at least 8.30 in experiment [1] (Homo sapiens), 8.30 to 9.00 in experiment [2], 8.30 to 9.00 in experiment [3] and 6.30 to 7.30 in experiment [4].

On to `COc1ccc(F)cc1C(=O)NCc1ccc(-c2ncc(-c3ccc(F)cn3)c3[nH]nc(N)c23)c(F)c1` [Example 82, N-(4-(3-amino-7-(5-fluoropyridin-2-yl)-1H-pyrazolo[4,3-c]pyridin-4-yl)-3-fluorobenzyl)-5-fluoro-2-methoxybenzamide], for which the negative logarithm of the IC50 (pIC50) was 7.30 to 8.00 in experiment [1] (Homo sapiens, Ramos); 8.30 to 9.00 in experiment [2]; 8.30 to 9.00 in experiment [3]; 6.30 to 7.30 in experiment [4].

As to `COc1ccc(F)cc1C(=O)NCc1ccc(-c2nc(C)c(-c3ncccn3)c3[nH]nc(N)c23)cc1` [Example 84, N-(4-(3-amino-6-methyl-7-(pyrimidin-2-yl)-1H-pyrazolo[4,3-c]pyridin-4-yl)benzyl)-5-fluoro-2-methoxybenzamide], the pIC50 in experiment [1] (Homo sapiens, Ramos) was 8.00 to 8.30; in experiment [2] it was 7.30 to 8.30; in experiment [3], 7.30 to 8.30; in experiment [4] it was 6.30 to 7.30.

In the case of `COc1ccc(F)cc1C(=O)NCc1ccc(-c2nc(C(F)F)c(-c3ncccn3)c3[nH]nc(N)c23)cc1` [Example 85, N-(4-(3-amino-6-(difluoromethyl)-7-(pyrimidin-2-yl)-1H-pyrazolo[4,3-c]pyridin-4-yl)benzyl)-5-fluoro-2-methoxybenzamide], the negative-log IC50 (pIC50) in experiment [1] (Homo sapiens, Ramos) is at least 8.30; in experiment [2] it was 8.30 to 9.00; in experiment [3], 8.30 to 9.00; in experiment [4], 6.30 to 7.30.

Take `COc1ccc(F)cc1C(=O)NCc1ccc(-c2nc(C3CCSCC3)cc3[nH]nc(N)c23)cc1` [Example 91, N-(4-(3-amino-6-(tetrahydro-2H-thiopyran-4-yl)-1H-pyrazolo[4,3-c]pyridin-4-yl)benzyl)-5-fluoro-2-methoxybenzamide]: the pIC50 in experiment [1] (Homo sapiens, Ramos) is 8.00 to 8.30; in experiment [2], 8.30 to 9.00; in experiment [3], 8.30 to 9.00; in experiment [4] it was 6.30 to 7.30.

For the compound `C=CC(=O)N1CCCC(c2cc3[nH]nc(N)c3c(-c3ccc(CNC(=O)c4cc(F)ccc4OC)cc3)n2)C1` (stereo not drawn) [Example 96, N-(4-(6-(1-acryloylpiperidin-3-yl)-3-amino-1H-pyrazolo[4,3-c]pyridin-4-yl)benzyl)-5-fluoro-2-methoxybenzamide], the negative logarithm of the IC50 (pIC50) is at least 8.30 in experiment [1] (Homo sapiens, Ramos); 8.30 to 9.00 in experiment [2]; 8.30 to 9.00 in experiment [3]; 7.30 to 8.30 in experiment [4].

`COc1ccc(F)cc1C(=O)NCc1ccc(-c2ncc(-c3nccn4nccc34)c3[nH]nc(N)c23)cc1` [Example 98, N-(4-(3-amino-7-(pyrazolo[1,5-a]pyrazin-4-yl)-1H-pyrazolo[4,3-c]pyridin-4-yl)benzyl)-5-fluoro-2-methoxybenzamide]: the pIC50 in experiment [1] (Homo sapiens, Ramos) is at least 8.30; in experiment [2] it was 8.30 to 9.00; in experiment [3] it was 8.30 to 9.00; in experiment [4] it was 6.30 to 7.30.

Take `COc1ccc(F)cc1C(=O)NCc1ccc(-c2ncc(-c3nc4ccccc4s3)c3[nH]nc(N)c23)cc1` [Example 99, N-(4-(3-amino-7-(benzo[d]thiazol-2-yl)-1H-pyrazolo[4,3-c]pyridin-4-yl)benzyl)-5-fluoro-2-methoxybenzamide]: the pIC50 in experiment [1] (Homo sapiens, Ramos) is at least 8.30; in experiment [2], 7.30 to 8.30; in experiment [3] it was 7.30 to 8.30; in experiment [4], 6.30 to 7.30.

Consider `COc1ccc(F)cc1C(=O)NCc1ccc(-c2ncc(-c3nc4cccnc4s3)c3[nH]nc(N)c23)cc1` [Example 100, N-(4-(3-amino-7-(thiazolo[5,4-b]pyridin-2-yl)-1H-pyrazolo[4,3-c]pyridin-4-yl)benzyl)-5-fluoro-2-methoxybenzamide], for which the negative-log IC50 (pIC50) in experiment [1] (Homo sapiens, Ramos) was at least 8.30; in experiment [2] it was 8.30 to 9.00; in experiment [3], 8.30 to 9.00; in experiment [4] it was 6.30 to 7.30.

In the case of `CCN1CCc2nc(-c3cnc(-c4ccc(CNC(=O)c5cc(F)ccc5OC)cc4)c4c(N)n[nH]c34)sc2C1` [Example 101, N-(4-(3-amino-7-(5-ethyl-4,5,6,7-tetrahydrothiazolo[5,4-c]pyridin-2-yl)-1H-pyrazolo[4,3-c]pyridin-4-yl)benzyl)-5-fluoro-2-methoxybenzamide], the pIC50 in experiment [1] (Homo sapiens, Ramos) is at least 8.30; in experiment [2] it was 8.30 to 9.00; in experiment [3], 8.30 to 9.00; in experiment [4] it was 7.30 to 8.30.

For the compound `COc1ccc(F)cc1C(=O)NCc1ccc(-c2ncc(-c3ccc4c(n3)nc3n4CCOC3)c3[nH]nc(N)c23)cc1` [Example 102, N-(4-(3-amino-7-(6,7-dihydro-9H-pyrido[2',3':4,5]imidazo[2,1-c][1,4]oxazin-2-yl)-1H-pyrazolo[4,3-c]pyridin-4-yl)benzyl)-5-fluoro-2-methoxybenzamide], the pIC50 in experiment [1] (Homo sapiens, Ramos) is 7.30 to 8.00; in experiment [2], 7.30 to 8.30; in experiment [3] it was 7.30 to 8.30; in experiment [4], under 6.30.

As for `COc1ccc(F)cc1C(=O)NCc1ccc(-c2ncc(-c3ccc4c(n3)nc3n4C(C)COC3)c3[nH]nc(N)c23)cc1` (stereo not drawn) [Example 103, N-(4-(3-amino-7-(6-methyl-6,7-dihydro-9H-pyrido[2',3':4,5]imidazo[2,1-c][1,4]oxazin-2-yl)-1H-pyrazolo[4,3-c]pyridin-4-yl)benzyl)-5-fluoro-2-methoxybenzamide], the negative logarithm of the IC50 (pIC50) in experiment [1] (Homo sapiens, Ramos) was 7.30 to 8.00; in experiment [2], 7.30 to 8.30; in experiment [3], 7.30 to 8.30; in experiment [4], 6.30 to 7.30.

For `COc1ccc(F)cc1C(=O)NCc1ccc(-c2ncc(-c3cccnc3)c3[nH]nc(N)c23)cc1` [Example 105, N-(4-(3-amino-7-(pyridin-3-yl)-1H-pyrazolo[4,3-c]pyridin-4-yl)benzyl)-5-fluoro-2-methoxybenzamide], the pIC50 in experiment [1] (Homo sapiens, Ramos) is under 7.30; in experiment [2] it was 7.30 to 8.30; in experiment [3], 6.30 to 7.30; in experiment [4], under 6.30.

Regarding `COc1ccc(F)cc1C(=O)NCc1ccc(-c2ncc(-c3ccncc3)c3[nH]nc(N)c23)cc1` [Example 106, N-(4-(3-amino-7-(pyridin-4-yl)-1H-pyrazolo[4,3-c]pyridin-4-yl)benzyl)-5-fluoro-2-methoxybenzamide], the pIC50 in experiment [1] (Homo sapiens, Ramos) is under 7.30; in experiment [2], 6.30 to 7.30; in experiment [3], 6.30 to 7.30; in experiment [4], under 6.30.

Consider `COc1ccc(F)cc1C(=O)NCc1ccc(-c2nc(C3CCOCC3)cc3[nH]nc(N)c23)cc1` [Example 115, N-(4-(3-amino-6-(tetrahydro-2H-pyran-4-yl)-1H-pyrazolo[4,3-c]pyridin-4-yl)benzyl)-5-fluoro-2-methoxybenzamide], for which the pIC50 in experiment [1] (Homo sapiens, Ramos) is at least 8.30; in experiment [2] it was 7.30 to 8.30; in experiment [3] it was 8.30 to 9.00; in experiment [4], 6.30 to 7.30.

With `COc1ccc(F)cc1C(=O)NCc1ccc(-c2nc([C@H]3CC[C@H](CO)CC3)cc3[nH]nc(N)c23)cc1` [Example 117, N-(4-(3-amino-6-((1r,4r)-4-(hydroxymethyl)cyclohexyl)-1H-pyrazolo[4,3-c]pyridin-4-yl)benzyl)-5-fluoro-2-methoxybenzamide], the pIC50 in experiment [1] (Homo sapiens, Ramos) is at least 8.30; in experiment [2], 8.30 to 9.00; in experiment [3] it was 8.30 to 9.00; in experiment [4], 6.30 to 7.30.

Consider “N-(4-(3-amino-7-(1-(difluoromethyl)-1H-pyrazol-3-yl)-1H-pyrazolo[4,3-c]pyridin-4-yl)benzyl)-5-fluoro-2-methoxybenzamide [Example 29]”, for which the pIC50 was at least 8.30 in experiment [1], at least 9.00 in experiment [2], at least 9.00 in experiment [3] and 7.30 to 8.30 in experiment [4].
